Assays:
[1] = test system: CHO-KI cells; experiment: Ultrasound mediated transfection of GFP chromosomes with Saint-2; format: cell-based
Method: CHO-KI cells were grown at 37°, 5% CO2, in CHO-S-SFM 2 Medium, (Gibco BRL, Paisley, UK). Between 2×10^5 and 5×10^5 cells were plated onto sterile glass slides in a 12 well plate 24 h before usage.
Transfection of the cells was performed as follows. The medium was removed from the cells, and the cells were washed twice with HBSS (Hanks balanced salt solution without Phenol Red (Gibco BRL, UK)) at 37° C. Then 500 μl HBSS at 37° C. was added per well, followed by 10 μl of the freshly prepared vesicle solution (prepared in Example 2) to yield a final concentration of 23.3 nmol/ml.
Alternatively, the medium was removed from the cells, and the cells were washed twice with HBSS. 500 μl HBSS/lipid solution at 37° C. was added to each well. The HBSS/lipid solution was prepared by adding 1 μl ethanolic lipid solution (prepared as described above) to 500 μHBSS under vigorous vortexing. The plates were then sealed with parafilm tape and shaken gently at room temperature for 30 min. After incubation, ultrasound was applied at an output energy of 0.5 Watt/cm^2 for 60 sec through the bottom of the plate to the cells. The ultrasound was mediated by an ultrasound gel (Aquasonic 100, Parker, N.J.) between transducer and plate. The ultrasound was applied with an ImaRx Sonoporator 100. Immediately after applying ultrasound one GFP chromosome per seeded cell (2×10^5-5×10^5) (prepared in Example 1) was added. The plate was then sealed again and shaken gently for 1 h at room temperature. After the incubation 1 ml medium (CHO—S—SFM 2 with 10% Fetal Calf Serum, 10000 μg/ml Penicillin and 10000 μg/ml Streptomycin Gibco BRL, Paisley, UK) was added to each well and the cells were incubated for 24 h at 37° C. The cells were then washed with medium and 1 ml medium was added and the cells were incubated at 37° for another 24 h. Detection of expressed genes was then assayed by microscopy or detection of the transferred chromosome by FISH analysis.
The negative control was performed in the same way, but with no chromosomes added to the cells.

[2] = test system: Hep-G2 cells; experiment: as above; format: cell-based, human; conditions: of the cells remaining on the slide
Method: Hep-G2 cells were grown at 37° C., 5% CO2, in DMEM with 4500 mg/l Glucose, with Pyridoxine/HCL, 10% Fetal Calf Serum, 10000 μg/ml Streptomycin and 1000 μg/ml Penicillin. Between 2×10^5 and 5×10^5 cells were plated onto sterile glass slides in a 12 wells plate 24 hours before usage.
Cells were transfected with GFP chromosomes using the procedure of Example 6A except that the CHO—KI medium was replaced with Hep-G2 medium.

[3] = test system: A9 cells; experiment: as above; format: cell-based, murine; conditions: of the cells remaining on the glass
Method: A9 cells were grown at 37° C., 5% CO2, in DMEM with 4500 mg/l Glucose, with Pyridoxine/HCL, 10% Fetal Calf Serum, 10000 μg/ml Streptomycin and 10000 μg/ml Penicillin (GIBCO BRL, Paisley, UK). Between 2×10^5 and 5×10^5 cells were plated onto sterile glass slides in a 12 well plate 24 h before usage.
Cells were transfected with GFP chromosomes using the procedure of Example 6A except that CHO-KI medium was replaced with A9 medium.

[4] = test system: LM(tk−) cells; experiment: Nocodazole cell synchronization, cell cycle kinetics by propidium iodide flow cytometry; format: cell-based, murine
Method: To determine the optimum blocking concentration of nocodazole, nocodazole concentrations were titrated against LM(tk−) cells to generate a dose response. Timing of the optimal blocking concentration (100 ng/ml) was then assessed over 0-1 6 hours using flow cytometry. To determine the cell cycle kinetics of LM(tk−) cell populations at different time points, cells were stained with propidium iodide (PI) at a concentration of […] for 1×10^6 cells and analyzed with a FACS Vantage SE (Becton Dickinson Immunocytometry Systems, San Jose, Calif.) equiped with an argon laser tuned to 488 nm at 200 mW. Whole intact cells were gated on forward scatter (FSC, representing cell size) versus side scatter (SSC, representing internal granularity) and PI emission was detected with a 630/22 filter. A list mode file was generated with a minimum of 20,000 whole intact cells analyzed. The proportion of cells in G0-G1, S and G2-M were documented for each time point. Optimum cell-cycle arrest at the G2/M boundary was achieved by incubating cells with 100 ng/ml nocodazole in serum containing DMEM medium for 6 hours. After 6 hours of nocodazole exposure at 100 ng/ml, approximately 20% of cells were in S phase and 50% of cells were at G2/M. Cell cycle kinetics were again monitored by flow cytometry upon release of the nocodazole block and at frequent intervals over a 16 hour period.

[5] = test system: LM(tk−) cells; experiment: ACes transfection at time points after release of nocodazole block, hygromycin selection and FISH; format: cell-based, murine; conditions: nocodazole synchronized colonies (20/47), LipofectAMINE PLUS or Superfect; asynchronous control colonies 4% (2/49)
Method: Cells were plated at 7.5×10^5 cells per well of a 6-well plate 24 hours prior to nocodazole treatment. The cells were incubated with nocodazole for 6 hours. After the 6 hour incubation, wells were hosed with medium to dislodge the suspension fraction of cells. Nocodazole containing medium was removed and the wells were washed with fresh medium. The wash medium was aspirated and fresh medium was replaced in the wells. To determine the optimum time point for transfection, different cell samples were transfected at different time points after release of the nocodazole block. The time points were 0, 2, 4, 6, 8, 12, and 16 hours after release of the nocodazole block. Following transfer, the cells were plated and transfectants identified using hygromycin selection. Highest colony formations were achieved when transfection occurred 2-4 hours post nocodazole block. At these time points, cell population distribution included approximately 10% of cells in G0/G1, 20% in S, and 70% in G2/M. Transfectants were analyzed using FISH to determine the quality of the transferred material. […]
Cells were synchronized by nocodazole treatment (100 ng/ml final concentration) for 6 hours prior to transfection. […] Twenty-four hours post-transfection the cells are counted (Coulter counter) and a small fraction are plated for a modified toxicity assay. […]

[6] = test system: LM(tk−) cells; experiment: Thymidine cell synchronization, cell cycle kinetics by flow cytometry; format: cell-based, murine; conditions: 16 hours incubation, dose range 1-20 mM tested
Method: To determine the optimum parameters for cell cycle synchronization, thymidine was administered to cell samples in a dose range of 1-20 mM. Samples were analyzed by flow cytometry to determine the cell cycle kinetics of LM(tk−) cell populations at frequent intervals over a 16 hour time period. Optimum synchronization of cells in G0/G1 was achieved by incubating LM(tk−) cells with 10 mM thymidine in serum containing DMEM medium for 16 hours. The thymidine block was released by washing the cells twice in serum-free medium and replacing the medium with complete medium containing 24 μM 2′-deoxycytidine 5′ mono-phosophate (dCMP; Sigma D-7750, St. Louis, Mo.). Cell cycle kinetics were again monitored by flow cytometry upon release of the thymidine block and at frequent intervals over a 16 hour period.

[7] = 2-4 hours post nocodazole block
[8] = after 6 hours of nocodazole exposure at 100 ng/ml

For `CCCCCCCCC=CCCCCCCCCC(CCCCCCCCC=CCCCCCCCC)c1cc[n+](C)cc1.[Cl-]` (stereo not shown) [Saint-2, 1-methyl-4-(1-octadec-9-enyl-nonadec-10-enylenyl) pyridinium chloride], the “GFP positive cells, of original population” value ([1]; after 48 hours) was 3%, the “remaining cells positive for green fluorescent protein expression” value (from here on “remaining cells positive”) ([1]; after 48 hours, of the cells remaining on the slide) was 10% and the “cells containing an intact artificial chromosome (FISH)” value ([1]; after culturing for two weeks) was 1.4%. For the same compound, the “remaining cells positive” value [2] was 80% and the “remaining cells positive” value [3] was 50%.
In the case of `COC(=O)Nc1nc2ccc(C(=O)c3cccs3)cc2[nH]1` [nocodazole], the “cells in G0/G1” value [4, 7] is reported as “approximately 10%”, the “cells in G2/M” value [4, 7] is reported as ~70% and the “cells in S” value [4, 7] is reported as ~20%. For the same compound, the “optimal blocking concentration for cell-cycle arrest at the G2/M boundary” value ([4]; 6 hours incubation, serum containing DMEM) was 100 ng/mL, the “cells at G2/M” value [4, 8] was ~50% and the “cells in S phase” value [4, 8] was “approximately 20%”. The “percentage of colonies where at least 50% of the cells had an intact ACes (FISH)” value [5] was 43%.
For `Cc1cn([C@H]2C[C@H](O)[C@@H](CO)O2)c(=O)[nH]c1=O` [thymidine], the “concentration for optimum synchronization of cells in G0/G1” value [6] was 10 mM.

From patent publication US20030224522A1, “Methods for delivering nucleic acid molecules into cells and assessment thereof” (priority 2002, published 2003)
